In patent publication US20130178441A1, “Methods for Extending Progression-Free Survival using 10-Propargyl-10-Deazaaminopterin” (ALLOS THERAPEUTICS, INC., priority 2010, published 2013):

Key:
Assay type in all cases: in vivo, human
[1] = tested on: patients with relapsed or refractory PTCL; assay: PROPEL analysis by treatment duration: treatment discontinuation and adverse events
Experimental: (§1) The pivotal PROPEL study of pralatrexate (FOLOTYN®) in patients with relapsed or refractory PTCL reported a rapid response to treatment in a heavily pretreated patient population. The majority of patients (63% of responders) responded by their first assessment at 7 weeks (the end of cycle 1). The present analysis assessed if there were any unique characteristics of patients who were unable to complete the first cycle of therapy and to assess the outcomes of patients who received ≧1 or ≧2 cycles of pralatrexate. Pralatrexate, a folate analog targeting dihydrofolate reductase, was approved in the United States for treatment of relapsed or refractory PTCL based on the PROPEL study. Methods: In PROPEL, patients received 30 mg/m^2 pralatrexate once weekly for 6 weeks in successive 7-week cycles. […] Cycle completion was determined receiving ≧1 dose in the following cycle. Thus, the subgroup of patients who completed ≧1 (n=64) includes those patients who only completed 1 cycle+the 43 who completed ≧2 cycles of treatment. […] However, the patients not completing cycle lwere more likely to have the angioimmunoblastic subtype (20% vs 6%). Patients in each subgroup received a median of 3 prior treatment regimens.
The most frequent reasons for treatment discontinuation were similar for patients with <1 cycle, ≧1 cycle or ≧2 cycles, although the incidence of discontinuation was lower for patients with ≧1 or 2 cycles. […] However, the percentage of patients in whom mucosal inflammation led to treatment discontinuation was similar (<1: 4%; ≧1: 6%; ≧2: 2%). […] Patients who were unable to complete cycle 1 were more likely to have quickly progressed through multiple lines of therapy and were more likely to have the angioimmunoblastic subtype, which a subtype is thought to have a different biology than other PTCL subtypes and lower chemosensitivity. Further analysis of this subtype is warranted.

[2] = tested on: relapsed or refractory peripheral T-cell lymphoma (PTCL); assay: PROPEL (PDX-008) pivotal trial of pralatrexate, overall population (N=109)
Source text: Pralatrexate was approved under the provisions of accelerated approval is the United States for the treatment of patients with relapsed/refractory PTCL based on the results of the pivotal trial PROPEL (Pralatrexate in Patients with Relapsed Or Refractory Peripheral T-cell Lymphoma). The primary endpoint, objective response rate (ORR) by independent central review using International Workshop Criteria, was 29% (32/109), including 11% complete response/complete response unconfirmed (CR/CRu) with a median duration of response of 10.1 months. The ORR by investigator assessment was 39% (43/109), including 18% CR/CRu.
The prognosis of aggressive PTCL is dismal. Investigators have developed salvage regimens attempting to improve outcomes for patients with relapsed or refractory disease. One such regimen frequently used is ifosfamide, carboplatin, and etoposide (ICE) or ICE-based regimens (eg, and rituximab-ICE [RICE] and dexamethasome-ICE [DICE]). These regimens can have response rates approaching 70% and patients may proceed to a stem cell transplant, yet most patients tend to relapse quickly (Horwitz et al Blood 2005; 106:a2679). Thus, optimal approaches for patients with relapsed or refractory disease are needed, and agents based on a unique mechanism of action warrant study. This analysis was conducted to determine if pralatrexate offered a beneficial treatment option for patients after treatment with an ICE/RICE/DICE regimen. Methods: Pralatrexate was administered via intravenous push over 3 to 5 minutes at 30 mg/m^2/week for six weeks in 7-week cycles with concurrent 1 mg vitamin B12 intramuscular every 8 to 10 weeks and folic acid 1.0 to 1.25 mg by mouth once daily. 109 patients were treated with pralatrexate in the PROPEL study. All patients in the PROPEL study had received at least 1 prior therapy for PTCL. A subset of 20 patients had received ICE, RICE or DICE at some point prior to treatment with pralatrexate. The efficacy in these patients was compared to the remainder of the patient population who had not received ICE/RICE/DICE as a therapy for PTCL prior to pralatrexate (n=89). The patient population that previously received an ICE-based regimen was heavily pretreated with am edian of 3 prior systemic regimens (range, 2-11). The median age was 45 years, a younger patient population compared with the overall PROPEL population (59 years).
as §1

relapsed/refractory PTCL = assay: PROPEL analysis by treatment duration (<1, ≧1, ≧2 cycles of pralatrexate): efficacy; settings: for Median PFS by Central Review (months): Kaplan-Meier
Experimental: as §1

[3] = Treatment Duration <1 cycle (n=45)
[4] = Treatment Duration ≧1 cycle (n=64)
[5] = Treatment Duration ≧2 cycles (n=43)

Compound: C#CCC(Cc1cnc2nc(N)nc(N)c2n1)c1ccc(C(=O)N[C@@H](CCC(=O)O)C(=O)O)cc1 (mixture of isomers) [Pralatrexate, (2S)-2-[[4-[(1RS)-1-[(2,4-diaminopteridin-6-yl)methyl]but-3-ynyl]benzoyl]amino]pentanedioic acid]
- Additional patients with dose reductions in cycle 2 due to mucosal inflammation who continued treatment ([1]; 4 patients): 9%
- Discontinued due to adverse events (AEs) ([1]; 45 patients who did not complete cycle 1): 29%
- Incidence of Grade 3-4 anemia ([1]; <1 cycle): 27%
- Incidence of Grade 3-4 mucosal inflammation ([1]; <1 cycle): 24%
- Incidence of Grade 3-4 thrombocytopenia ([1]; <1 cycle): 40%
- Patients in whom mucosal inflammation led to treatment discontinuation ([1]; <1 cycle): 4%
- Patients with dose reductions due to mucosal inflammation in cycle 1 who continued treatment ([1]; Eight patients): 13%
- Patients with a response to pralatrexate ([1]; of the 4 patients with dose reductions in cycle 2 due to mucosal inflammation): 3 patients
- Patients with a response to pralatrexate ([1]; of the 8 patients with dose reductions due to mucosal inflammation in cycle 1): 4 patients
- Incidence of Grade 3-4 anemia ([1]; ≧1 cycle): 13%
- Incidence of Grade 3-4 mucosal inflammation ([1]; ≧1 cycle): 19%
- Incidence of Grade 3-4 thrombocytopenia ([1]; ≧1 cycle): 28%
- Patients in whom mucosal inflammation led to treatment discontinuation ([1]; ≧1 cycle): 6%
- Incidence of Grade 3-4 anemia ([1]; ≧2 cycles): 9%
- Incidence of Grade 3-4 mucosal inflammation ([1]; ≧2 cycles): 12%
- Incidence of Grade 3-4 thrombocytopenia ([1]; ≧2 cycles): 21%
- Patients in whom mucosal inflammation led to treatment discontinuation ([1]; ≧2 cycles): 2%
- Responders who responded by their first assessment at 7 weeks (end of cycle 1) ([2]; % of responders): 63%
- CR/CRu (complete response/complete response unconfirmed) by independent central review ([2]; all 109 patients): 11%
- CR/CRu by investigator assessment ([2]; all 109 patients): 18%
- Median duration of PFS by central review ([2]; all 109 patients): 3.5 months
- Median duration of PFS by investigator assessment ([2]; all 109 patients): 4.0 months
- Median duration of response by central review ([2]; all 109 patients): 10.1 months
- Median duration of response by investigator assessment ([2]; all 109 patients): 8.1 months
- ORR by investigator assessment ([2]; all 109 patients): 39%
- Objective response rate (ORR) by independent central review using International Workshop Criteria ([2]; all 109 patients): 29%
- Median OS (months) (relapsed/refractory PTCL; [3]): 8.2 months
- ORR by Central Review (CR + CRu + PR) (relapsed/refractory PTCL; [3]): 7%
- ORR by Investigator Assessment (CR + CRu + PR) (relapsed/refractory PTCL; [3]): 7%
- Median PFS by Central Review (months) (relapsed/refractory PTCL; [3]): 1.3 months
- Median Duration of Response by Central Review (months) (relapsed/refractory PTCL; [4]): 10.1 months
- Median OS (months) (relapsed/refractory PTCL; [4]): 20.5 months
- ORR by Central Review (CR + CRu + PR) (relapsed/refractory PTCL; [4]): 45%
- ORR by Investigator Assessment (CR + CRu + PR) (relapsed/refractory PTCL; [4]): 63%
- Median PFS by Central Review (months) (relapsed/refractory PTCL; [4]): 4.9 months
- Median Duration of Response by Central Review (months) (relapsed/refractory PTCL; [5]): 13.1 months
- Median OS (months) (relapsed/refractory PTCL; [5]): 22.9 months
- ORR by Central Review (CR + CRu + PR) (relapsed/refractory PTCL; [5]): 54%
- ORR by Investigator Assessment (CR + CRu + PR) (relapsed/refractory PTCL; [5]): 70%
- Median PFS by Central Review (months) (relapsed/refractory PTCL; [5]): 8.1 months
